# Data taken from ChEMBL document CHEMBL1201862, “PubChem BioAssay data set” (2004).
#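 Interpolation was linear, between the two tested concentrations surrounding the appropriate level; five concentrations were tested over 48 hours in 96-well plates. GI50 is the concentration that inhibits growth by half.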 Active and inactive are the calls of the source. Rule as the data show it: active = GI50 up to about 1.1 µM and inactive = higher.
# Tests used:
# Experiment in all cases: NCI-60 cell line screen, 48 h
# SR = test system: SR
# LOX IMVI = test system: LOX IMVI
# OVCAR-5 = test system: OVCAR-5
# COLO 205 = test system: COLO 205
# OVCAR-8 = test system: OVCAR-8
# KM-20L2 = test system: KM-20L2
# HL-60 = test system: HL-60
# A498 = test system: A498
# ACHN = test system: ACHN
# SNB-75 = test system: SNB-75
# TK-10 = test system: TK-10
# HCC 2998 = test system: HCC 2998
# SK-OV-3 = test system: SK-OV-3
# SK-MEL-5 = test system: SK-MEL-5
# LXFL 529 = test system: LXFL 529
# Malme-3M = test system: Malme-3M
# U-251 = test system: U-251
# M19-MEL = test system: M19-MEL
# RPMI-8226 = test system: RPMI-8226
# SN12C = test system: SN12C
# SNB-19 = test system: SNB-19
# XF498 = test system: XF498
# UACC-257 = test system: UACC-257
# SF-539 = test system: SF-539
# HCT-116 = test system: HCT-116
# NCI-H226 = test system: NCI-H226
# UACC-62 = test system: UACC-62
# DMS-114 = test system: DMS-114
# NCI-H23 = test system: NCI-H23
# EKVX = test system: EKVX
# K562 = test system: K562
# KM12 = test system: KM12
# HOP-18 = test system: HOP-18
# HT-29 = test system: HT-29
# SF-268 = test system: SF-268
# HOP-92 = test system: HOP-92
# SF-295 = test system: SF-295
# SK-MEL-2 = test system: SK-MEL-2
# UO-31 = test system: UO-31
# M14 = test system: M14
# MOLT-4 = test system: MOLT-4
# 786-0 = test system: 786-0
# SK-MEL-28 = test system: SK-MEL-28
# NCI-H522 = test system: NCI-H522
# CCRF-CEM = test system: CCRF-CEM
# HOP-62 = test system: HOP-62
# A549 = test system: A549
# DMS-273 = test system: DMS-273
# DLD-1 = test system: DLD-1
# RXF 393 = test system: RXF 393
# SNB-78 = test system: SNB-78
# OVCAR-3 = test system: OVCAR-3
# SW-620 = test system: SW-620
# HCT-15 = test system: HCT-15
# CAKI-1 = test system: CAKI-1
# OVCAR-4 = test system: OVCAR-4
# IGROV-1 = test system: IGROV-1
# NCI-H460 = test system: NCI-H460
# RXF 631 = test system: RXF 631
smiles,measurement,setting,value
CC(=O)N1CCC2(c3ccccc3N(C(C)=O)C2c2ccc(O)cc2)C1C(=O)O (stereo not drawn),GI50,SR,> 100 µM (inactive)
same,GI50,LOX IMVI,> 100 µM (inactive)
same,GI50,OVCAR-5,> 100 µM (inactive)
same,GI50,COLO 205,> 100 µM (inactive)
same,GI50,OVCAR-8,> 100 µM (inactive)
same,GI50,KM-20L2,> 100 µM (inactive)
same,GI50,HL-60,> 100 µM (inactive)
same,GI50,A498,> 100 µM (inactive)
same,GI50,ACHN,> 100 µM (inactive)
same,GI50,SNB-75,> 100 µM (inactive)
same,GI50,TK-10,> 100 µM (inactive)
same,GI50,HCC 2998,> 100 µM (inactive)
same,GI50,SK-OV-3,> 100 µM (inactive)
same,GI50,SK-MEL-5,> 100 µM (inactive)
same,GI50,LXFL 529,> 100 µM (inactive)
same,GI50,Malme-3M,> 100 µM (inactive)
same,GI50,U-251,> 100 µM (inactive)
same,GI50,M19-MEL,> 100 µM (inactive)
same,GI50,RPMI-8226,> 100 µM (inactive)
same,GI50,SN12C,> 100 µM (inactive)
same,GI50,SNB-19,> 100 µM (inactive)
same,GI50,XF498,> 100 µM (inactive)
same,GI50,UACC-257,> 100 µM (inactive)
same,GI50,SF-539,> 100 µM (inactive)
same,GI50,HCT-116,> 100 µM (inactive)
same,GI50,NCI-H226,> 100 µM (inactive)
same,GI50,UACC-62,> 100 µM (inactive)
same,GI50,DMS-114,> 100 µM (inactive)
same,GI50,NCI-H23,> 100 µM (inactive)
same,GI50,EKVX,> 100 µM (inactive)
same,GI50,K562,> 100 µM (inactive)
same,GI50,KM12,> 100 µM (inactive)
same,GI50,HOP-18,> 100 µM (inactive)
same,GI50,HT-29,> 100 µM (inactive)
same,GI50,SF-268,> 100 µM (inactive)
same,GI50,HOP-92,> 100 µM (inactive)
same,GI50,SF-295,> 100 µM (inactive)
same,GI50,SK-MEL-2,> 100 µM (inactive)
same,GI50,UO-31,> 100 µM (inactive)
same,GI50,M14,> 100 µM (inactive)
same,GI50,MOLT-4,> 100 µM (inactive)
same,GI50,786-0,> 100 µM (inactive)
same,GI50,SK-MEL-28,> 100 µM (inactive)
same,GI50,NCI-H522,> 100 µM (inactive)
same,GI50,CCRF-CEM,> 100 µM (inactive)
same,GI50,HOP-62,> 100 µM (inactive)
same,GI50,A549,> 100 µM (inactive)
same,GI50,DMS-273,> 100 µM (inactive)
same,GI50,DLD-1,> 100 µM (inactive)
same,GI50,RXF 393,> 100 µM (inactive)
same,GI50,SNB-78,> 100 µM (inactive)
same,GI50,OVCAR-3,> 100 µM (inactive)
same,GI50,SW-620,> 100 µM (inactive)
Cn1cc(NC(=O)c2cc(NC(=O)CCCCCCCCCC(=O)Nc3cc(C(=O)Nc4cc(C(=O)NCCC(=N)N)n(C)c4)n(C)c3)cn2C)cc1C(=O)NCCC(=N)N,GI50,HCT-15,39.3 µM
same,GI50,LOX IMVI,31 µM (inactive)
same,GI50,OVCAR-5,32.7 µM (inactive)
same,GI50,COLO 205,21.2 µM (inactive)
same,GI50,OVCAR-8,25.7 µM (inactive)
same,GI50,KM-20L2,31.2 µM (inactive)
same,GI50,ACHN,23.5 µM (inactive)
same,GI50,SNB-75,27.9 µM (inactive)
same,GI50,TK-10,22.7 µM (inactive)
same,GI50,SK-OV-3,92 µM (inactive)
same,GI50,SK-MEL-5,14.7 µM (inactive)
same,GI50,LXFL 529,24.5 µM (inactive)
same,GI50,Malme-3M,0.971 µM (active)
same,GI50,U-251,27.4 µM (inactive)
same,GI50,M19-MEL,34.1 µM (inactive)
same,GI50,RPMI-8226,8.26 µM (inactive)
same,GI50,SN12C,32.2 µM (inactive)
same,GI50,SNB-19,30.8 µM (inactive)
same,GI50,XF498,32.9 µM (inactive)
same,GI50,UACC-257,15.8 µM (inactive)
same,GI50,SF-539,37.9 µM (inactive)
same,GI50,HCT-116,24.5 µM (inactive)
same,GI50,NCI-H226,> 100 µM (inactive)
same,GI50,CAKI-1,32 µM (inactive)
same,GI50,UACC-62,31.2 µM (inactive)
same,GI50,DMS-114,84.9 µM (inactive)
same,GI50,NCI-H23,34.8 µM (inactive)
same,GI50,EKVX,28.6 µM (inactive)
same,GI50,K562,14.3 µM (inactive)
same,GI50,KM12,13.1 µM (inactive)
same,GI50,OVCAR-4,34.8 µM (inactive)
same,GI50,HOP-18,35.3 µM (inactive)
same,GI50,IGROV-1,41.5 µM (inactive)
same,GI50,HT-29,20.7 µM (inactive)
same,GI50,SF-268,21.8 µM (inactive)
same,GI50,HOP-92,16.4 µM (inactive)
same,GI50,SF-295,22.1 µM (inactive)
same,GI50,SK-MEL-2,29.3 µM (inactive)
same,GI50,UO-31,53.5 µM (inactive)
same,GI50,M14,23.1 µM (inactive)
same,GI50,MOLT-4,25.1 µM (inactive)
same,GI50,786-0,29.4 µM (inactive)
same,GI50,SK-MEL-28,11.9 µM (inactive)
same,GI50,NCI-H522,11 µM (inactive)
same,GI50,CCRF-CEM,22.6 µM (inactive)
same,GI50,HOP-62,24.5 µM (inactive)
same,GI50,A549,18.7 µM (inactive)
same,GI50,DMS-273,33.2 µM (inactive)
same,GI50,DLD-1,34.2 µM (inactive)
same,GI50,RXF 393,32.1 µM (inactive)
same,GI50,SNB-78,37.2 µM (inactive)
same,GI50,OVCAR-3,19.2 µM (inactive)
same,GI50,NCI-H460,23.9 µM (inactive)
same,GI50,SW-620,32 µM (inactive)
CCCNCCCC(NC(C)=O)C(=O)NCc1ccccc1 (stereo not drawn),GI50,HCT-15,> 100 µM
same,GI50,LOX IMVI,> 100 µM (inactive)
same,GI50,OVCAR-5,> 100 µM (inactive)
same,GI50,COLO 205,> 100 µM (inactive)
same,GI50,OVCAR-8,> 100 µM (inactive)
same,GI50,KM-20L2,> 100 µM (inactive)
same,GI50,A498,> 100 µM (inactive)
same,GI50,ACHN,> 100 µM (inactive)
same,GI50,SNB-75,51.8 µM (inactive)
same,GI50,TK-10,> 100 µM (inactive)
same,GI50,HCC 2998,> 100 µM (inactive)
same,GI50,SK-OV-3,> 100 µM (inactive)
same,GI50,SK-MEL-5,> 100 µM (inactive)
same,GI50,LXFL 529,> 100 µM (inactive)
same,GI50,Malme-3M,> 100 µM (inactive)
same,GI50,U-251,> 100 µM (inactive)
same,GI50,M19-MEL,> 100 µM (inactive)
same,GI50,RPMI-8226,> 100 µM (inactive)
same,GI50,SN12C,> 100 µM (inactive)
same,GI50,SNB-19,> 100 µM (inactive)
same,GI50,XF498,> 100 µM (inactive)
same,GI50,UACC-257,> 100 µM (inactive)
same,GI50,SF-539,> 100 µM (inactive)
same,GI50,HCT-116,> 100 µM (inactive)
same,GI50,NCI-H226,> 100 µM (inactive)
same,GI50,CAKI-1,> 100 µM (inactive)
same,GI50,UACC-62,> 100 µM (inactive)
same,GI50,DMS-114,> 100 µM (inactive)
same,GI50,NCI-H23,> 100 µM (inactive)
same,GI50,EKVX,> 100 µM (inactive)
same,GI50,K562,> 100 µM (inactive)
same,GI50,KM12,> 100 µM (inactive)
same,GI50,OVCAR-4,> 100 µM (inactive)
same,GI50,RXF 631,> 100 µM (inactive)
same,GI50,IGROV-1,> 100 µM (inactive)
same,GI50,HT-29,> 100 µM (inactive)
same,GI50,SF-268,> 100 µM (inactive)
same,GI50,HOP-92,> 100 µM (inactive)
same,GI50,SF-295,> 100 µM (inactive)
same,GI50,SK-MEL-2,> 100 µM (inactive)
same,GI50,UO-31,> 100 µM (inactive)
same,GI50,M14,> 100 µM (inactive)
same,GI50,MOLT-4,> 100 µM (inactive)
same,GI50,786-0,> 100 µM (inactive)
same,GI50,SK-MEL-28,> 100 µM (inactive)
same,GI50,NCI-H522,> 100 µM (inactive)
same,GI50,CCRF-CEM,> 100 µM (inactive)
same,GI50,HOP-62,> 100 µM (inactive)
same,GI50,A549,> 100 µM (inactive)
same,GI50,DMS-273,> 100 µM (inactive)
same,GI50,DLD-1,> 100 µM (inactive)
same,GI50,RXF 393,> 100 µM (inactive)
same,GI50,SNB-78,> 100 µM (inactive)
same,GI50,OVCAR-3,> 100 µM (inactive)
same,GI50,NCI-H460,> 100 µM (inactive)
same,GI50,SW-620,> 100 µM (inactive)
